Measurements: patent US9255100B2 (BAYER INTELLECTUAL PROPERTY GMBH, priority 2010, dated 2016)

Molecular target: T1, N-terminally GST-tagged human full length recombinant Mps-1 kinase (Homo sapiens, UniProt P33981)
T1 construct: N-terminally GST-tagged human full length recombinant Mps-1 kinase; purchased Invitrogen, Karslruhe, Germany PV4071
T1 sequence (P33981 1-857): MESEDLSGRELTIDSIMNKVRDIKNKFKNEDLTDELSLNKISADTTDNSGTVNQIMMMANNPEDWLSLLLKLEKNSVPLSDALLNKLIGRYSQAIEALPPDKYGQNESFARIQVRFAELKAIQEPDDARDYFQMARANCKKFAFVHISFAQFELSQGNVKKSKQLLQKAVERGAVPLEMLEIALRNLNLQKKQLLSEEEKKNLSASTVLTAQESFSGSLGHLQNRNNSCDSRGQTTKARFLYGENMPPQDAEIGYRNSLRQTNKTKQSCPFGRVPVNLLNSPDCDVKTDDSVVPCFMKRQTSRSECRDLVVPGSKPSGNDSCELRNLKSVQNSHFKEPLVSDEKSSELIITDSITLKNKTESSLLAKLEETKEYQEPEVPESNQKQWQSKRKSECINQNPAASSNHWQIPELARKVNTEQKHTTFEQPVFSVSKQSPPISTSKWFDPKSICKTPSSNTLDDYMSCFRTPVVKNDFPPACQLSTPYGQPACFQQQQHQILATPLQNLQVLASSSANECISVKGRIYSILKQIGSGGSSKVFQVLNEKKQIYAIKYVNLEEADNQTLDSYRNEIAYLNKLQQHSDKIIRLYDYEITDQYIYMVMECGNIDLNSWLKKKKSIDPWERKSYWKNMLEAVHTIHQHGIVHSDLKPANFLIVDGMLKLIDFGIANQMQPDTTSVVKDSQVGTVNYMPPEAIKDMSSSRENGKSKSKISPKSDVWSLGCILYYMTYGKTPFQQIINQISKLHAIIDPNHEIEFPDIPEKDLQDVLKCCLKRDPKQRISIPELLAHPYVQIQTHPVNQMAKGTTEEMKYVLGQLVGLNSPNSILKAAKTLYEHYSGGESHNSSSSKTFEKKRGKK
Assay: Mps-1 kinase assay (TR-FRET)
Type: biochemical
Conditions: Mps1 IC50 [nM], 10 μM ATP, 1 μM peptide substrate, 60 min at 22° C.
Method in brief: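 Compounds were tested against recombinant full-length Mps-1 bearing an N-terminal GST tag, about 1 nM final, with a biotinylated amide-capped peptide as substrate. Detection reagents were then bound for 1 h at 22° C and the product read by TR-FRET.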

Compound	IC50 [nM]
COC(C)(C)CNc1cc(-c2ccnn2C)nn2c(-c3ccc(C(=O)NC4CC4)c(C)c3)cnc12 [Example 39, N-cyclopropyl-4-{8-[(2-methoxy-2-methylpropyl)amino]-6-(1-methyl-1H-pyrazol-5-yl)imidazo[1,2-b]pyridazin-3-yl}-2-methylbenzamide]	3.7
CC(C)(O)CNc1cc(-c2ccccc2)nn2c(-c3ccc(C(=O)NC4CC4)cc3)cnc12 [Example 14, N-cyclopropyl-4-{8-[(2-hydroxy-2-methylpropyl)amino]-6-phenylimidazo[1,2-b]pyridazin-3-yl}benzamide]	1.2
Cc1cc(-c2cnc3c(NCCC(F)(F)F)cc(Nc4cc(F)cc(F)c4)nn23)ccc1C(=O)NC1CC1 [Example 378, N-cyclopropyl-4-{6-[(3,5-difluorophenyl)amino]-8-[(3,3,3-trifluoropropyl)amino]imidazo[1,2-b]pyridazin-3-yl}-2-methylbenzamide]	0.2
Cc1cc(-c2cnc3c(NCCC(F)(F)F)cc(Oc4cncc(F)c4)nn23)ccc1C(=O)NC1CC1 [Example 464, N-cyclopropyl-4-{6-[(5-fluoropyridin-3-yl)oxy]-8-[(3,3,3-trifluoropropyl)amino]imidazo[1,2-b]pyridazin-3-yl}-2-methylbenzamide]	0.1
COc1ccc(Nc2cc(NCC(C)(C)O)c3ncc(-c4ccc(C(=O)NC5CC5)c(C)c4)n3n2)cc1F [Example 353, N-cyclopropyl-4-{6-[(3-fluoro-4-methoxyphenyl)amino]-8-[(2-hydroxy-2-methylpropyl)amino]imidazo[1,2-b]pyridazin-3-yl}-2-methylbenzamide]	0.4
CC(C)(O)CNc1cc(Sc2cccc(F)c2)nn2c(-c3ccc(C(=S)NC4CC4)cc3)cnc12 [Example 246, N-cyclopropyl-4-{6-[(3-fluorophenyl)sulfanyl]-8-[(2-hydroxy-2-methylpropyl)amino]imidazo[1,2-b]pyridazin-3-yl}benzenecarbothioamide]	0.6
Cc1cc(-c2cnc3c(NC[C@H]4CC[S@+]([O-])CC4)cc(Oc4cccnc4)nn23)ccc1C(=O)NC1CC1 [Example 296C, N-cyclopropyl-2-methyl-4-[8-({[(trans)-1-oxidotetrahydro-2H-thiopyran-4-yl]methyl}amino)-6-(pyridin-3-yloxy)imidazo[1,2-b]pyridazin-3-yl]benzamide]	0.2
C=Cc1cccc(Nc2cc(NCC(C)(C)O)c3ncc(-c4ccc(C(=O)NC5CC5)c(C)c4)n3n2)c1 [Example 409, N-cyclopropyl-4-{6-[(3-ethenylphenyl)amino]-8-[(2-hydroxy-2-methylpropyl)amino]imidazo[1,2-b]pyridazin-3-yl}-2-methylbenzamide]	0.7
Cc1cc(-c2cnc3c(NCCC(F)(F)F)cc(Nc4ccc(Cl)c(F)c4)nn23)ccc1C(=O)NC1CC1 [Example 372, 4-{6-[(4-chloro-3-fluorophenyl)amino]-8-[(3,3,3-trifluoropropyl)amino]imidazo[1,2-b]pyridazin-3-yl}-N-cyclopropyl-2-methylbenzamide]	0.2
COc1ccccc1Sc1cc(NCC(C)(C)O)c2ncc(-c3ccc(C(=O)NC4CC4)c(C)c3)n2n1 [Example 73B, N-cyclopropyl-4-{8-[(2-hydroxy-2-methylpropyl)amino]-6-[(2-methoxyphenyl)sulfanyl]imidazo[1,2-b]pyridazin-3-yl}-2-methylbenzamide]	3.8
Cc1cc(-c2cnc3c(NCC4CCSCC4)cc(Sc4cccc(F)c4)nn23)ccc1C(=O)NC1CC1 [Example 285, N-cyclopropyl-4-{6-[(3-fluorophenyl)sulfanyl]-8-[(tetrahydro-2H-thiopyran-4-ylmethyl)amino]imidazo[1,2-b]pyridazin-3-yl}-2-methylbenzamide]	0.4
CC(C)CNc1cc(-c2ccc3nccn3c2)nn2c(-c3ccc(C(=O)NC4CC4)cc3)cnc12 [Example 145, N-cyclopropyl-4-{6-(imidazo[1,2-a]pyridin-6-yl)-8-[(2-methylpropyl)amino]imidazo[1,2-b]pyridazin-3-yl}benzamide]	< 1
Cc1ccc(F)cc1Sc1cc(NCC(C)(C)O)c2ncc(-c3ccc(C(=O)NC4CC4)c(C)c3)n2n1 [Example 64, N-cyclopropyl-4-{6-[(5-fluoro-2-methylphenyl)sulfanyl]-8-[(2-hydroxy-2-methylpropyl)amino]imidazo[1,2-b]pyridazin-3-yl}-2-methylbenzamide]	0.1
Cc1cc(-c2cnc3c(NCCCN(C)C)cc(Oc4cccc(F)c4)nn23)ccc1C(=O)NC1CC1 [Example 312, N-cyclopropyl-4-[8-{[3-(dimethylamino)propyl]amino}-6-(3-fluorophenoxy)imidazo[1,2-b]pyridazin-3-yl]-2-methyl-benzamide]	0.2
CNC(=O)c1ccc(-c2cnc3c(NCc4cccs4)cc(Cl)nn23)cc1 [Example 190, 4-{6-Chloro-8-[(thiophen-2-yl-methyl)amino]imidazo[1,2-b]pyridazin-3-yl}-N-methylbenzamide]	660
Cc1cc(-c2cnc3c(NCCC(F)(F)F)cc(Sc4ccc(F)c(F)c4)nn23)ccc1C(=O)NC1CC1 [Example 249, N-cyclopropyl-4-{6-[(3,4-difluorophenyl)sulfanyl]-8-[(3,3,3-trifluoropropyl)amino]imidazo[1,2-b]pyridazin-3-yl}-2-methylbenzamide]	0.2
Cc1cc(-c2cnc3c(NCCC(F)(F)F)cc(Sc4cccc(F)c4C)nn23)ccc1C(=O)NC1CC1 [Example 387, N-cyclopropyl-4-{6-[(3-fluoro-2-methylphenyl)sulfanyl]-8-[(3,3,3-trifluoropropyl)amino]imidazo[1,2-b]pyridazin-3-yl}-2-methylbenzamide]	0.3
OCc1cccc(-c2cc(NCCC(F)(F)F)c3ncc(-c4ccc(C(=S)NC5CC5)cc4)n3n2)c1 [Example 46, N-cyclopropyl-4-{6-[3-(hydroxymethyl)phenyl]-8-[(3,3,3-trifluoropropyl)amino]imidazo[1,2-b]pyridazin-3-yl}benzenecarbothioamide]	1.1
Cc1cc(-c2cnc3c(NCCC(F)(F)F)cc(Oc4cccc(OC(C)C)c4)nn23)ccc1C(=O)NC1CC1 [Example 381, N-cyclopropyl-2-methyl-4-{6-[3-(propan-2-yloxy)phenoxy]-8-[(3,3,3-trifluoropropyl)amino]imidazo[1,2-b]pyridazin-3-yl}benzamide]	0.6
Cc1cc(-c2cnc3c(NCC4CCS(=O)(=O)CC4)cc(Oc4ccc(Cl)cc4)nn23)ccc1C(=O)NC1CC1 [Example 294A, 4-[6-(4-chlorophenoxy)-8-{[(1,1-dioxidotetrahydro-2H-thiopyran-4-yl)methyl]amino}imidazo[1,2-b]pyridazin-3-yl]-N-cyclopropyl-2-methylbenzamide]	0.3
Cc1cc(-c2cnc3c(NCCC(F)(F)F)cc(Nc4ccccc4CO)nn23)ccc1C(=O)NC1CC1 [Example 370]	0.1
Cc1ccc(F)c(Oc2cc(NCC(C)(C)O)c3ncc(-c4ccc(C(=O)NC5CC5)c(C)c4)n3n2)c1 [Example 81, N-cyclopropyl-4-{6-(2-fluoro-5-methylphenoxy)-8-[(2-hydroxy-2-methylpropyl)amino]imidazo[1,2-b]pyridazin-3-yl}-2-methylbenzamide]	0.2
Cc1cc(-c2cnc3c(NCCC(F)(F)F)cc(Oc4ccc(Cl)cc4)nn23)ccc1C(=O)NC1CC1 [Example 267, 4-{6-(4-chlorophenoxy)-8-[(3,3,3-trifluoropropyl)amino]imidazo[1,2-b]pyridazin-3-yl}-N-cyclopropyl-2-methylbenzamide]	0.3
Cc1cc(-c2cnc3c(NCCC(F)(F)F)cc(Oc4ccc(F)cc4)nn23)ccc1C(=O)NC1CC1 [Example 472, N-cyclopropyl-4-{6-(4-fluorophenoxy)-8-[(3,3,3-trifluoropropyl)amino]imidazo[1,2-b]pyridazin-3-yl}-2-methyl-benzamide]	0.2
Cc1cc(-c2cnc3c(NCCC(F)(F)F)cc(SC4CCCCC4)nn23)ccc1C(=O)NC1CC1 [Example 171, 4-{6-(cyclohexylsulfanyl)-8-[(3,3,3-trifluoropropyl)amino]imidazo [1,2-b]pyridazin-3-yl}-N-cyclopropyl-2-methylbenzamide]	0.8
Cc1cc(-c2cnc3c(NCC(C)C)cc(Sc4ccccc4)nn23)ccc1C(=O)NC1CC1 [Example 197, N-cyclopropyl-2-methyl-4-{8-[(2-methylpropyl)amino]-6-(phenylsulfanyl)imidazo[1,2-b]pyridazin-3-yl}benzamide]	< 1
